Test results taken from PMC6811774, “Potent, selective, and subunit‐dependent activation of TRPC5 channels by a xanthine derivative” (British Journal of Pharmacology, 2019).

Test system: wild-type HEK 293 cells
Test: [Ca2+]i measurement in wild-type HEK 293 cells
Assay type: cell-based, human
Details: 0.3–300 nM
Method: Intracellular concentration of Ca^2+ ([Ca^2+]i) recordings were carried out using the ratiometric Ca^2+ dye Fura‐2; 24 hr before experiments, cells were plated onto black, clear bottom poly‐D‐lysine coated 96‐well plates, and for T‐REx cells, TRPM2 or TRPC1/4/5 protein expression was induced with 1 μg·ml^−1 tetracycline at this point. All cells were used at 90% confluence. To load cells with the Fura‐2 dye, media was removed and cells were incubated with standard bath solution (SBS; composition, in mM, NaCl 130, KCl 5, glucose 8, HEPES 10, MgCl2 1.2, and CaCl2 1.5) containing 2‐μM Fura‐2 acetoxymethyl ester (Fura‐2 AM) and 0.01% pluronic acid for 1 hr at 37°C. For CHO cells stably expressing TRPV4 protein, probenecid (final concentration 2.5 mM) was present in all buffers used from the point of Fura‐2 AM application. After this incubation, cells were washed with fresh SBS and incubated at room temperature for a further 30 min. SBS was then changed to recording buffer (SBS with 0.01% pluronic acid and 0.1% DMSO to match compound buffer) immediately prior to experimentation. In the case of inhibitor studies, cells were washed twice with fresh SBS after incubation with Fura‐2 AM, followed by the addition of SBS with 0.01% pluronic acid and the relevant inhibitor or vehicle. Cells were then incubated for 30 min prior to the experiment. […]

Q: How did the “Effect on [Ca2+]i in wild-type HEK 293 cells” value turn out when Cn1c(=O)n(CCCO)c(=O)c2c1nc(Oc1ccc(Cl)c(OC(F)(F)F)c1)n2Cc1ccc(Cl)cc1 [AM237] was run?
A: did not increase
